Measured values published in patent publication US9303015B2, “Heteroaryl linked quinolinyl modulators of RORγt” (Janssen Pharmaceutica NV, priority 2012, dated 2016).
Where a name gives a salt, the structure may show the parent alone.

Biological target: human RORγt LBD (Homo sapiens (Human), UniProt P51449)
Assay: RORγt reporter assay (GAL4-RORγt LBD luciferase, HEK293T cells)
Assay type: cell-based
Conditions: 6 μM, HEK293T cells
Text: A reporter assay was used to test functional activity of RORγt modulatory compounds on transcriptional activation driven by the RORγt LBD. Cells used in the assay were co-transfected with two constructs. The first construct, pBIND-RORγt LBD, contained the wild type human RORγt LBD fused to the DNA binding domain of the GAL4 protein. The second construct, pGL4.31 (Promega Cat no. C935A), contained multiple GAL4 responsive DNA elements upstream of firefly luciferase. […] The mutant construct was called pBIND-RORγt-AF2. […] The pBIND vector contains the GAL4 DNA Binding Domain (GAL4 DBD) and the renilla luciferase gene under control of the SV40 promoter. Renilla luciferase expression serves as a control for transfection efficiency and cell viability.
The reporter assay was performed by transiently transfecting HEK293T cells with 5 μg of pBIND-RORγt LBD or pBIND-RORγt LBD-AF2 and 5 μg pGL4.31 (Promega Cat no. C935A) using Fugene 6 (Invitrogen Cat no. E2691) at a 1:6 ratio of DNA: Fugene 6 in a T-75 flask in which cells were at least 80% confluent. Twenty four hours after bulk transfection, cells were plated into 96-well plates at 50,000 cells/well in phenol-red free DMEM containing 5% Lipid Reduced FCS and Pen/Strep. Six hours after plating, cells were treated with compounds for 24 hours. Media was removed and cells were lysed with 50 μL 1x Glo Lysis Buffer (Promega). Dual Glo Luciferase Reagent (50 μL/well) was then added and firefly luciferase luminescence was read on an Envision after a ten minute incubation. Finally, Stop and Glo reagent (50 μL/well) was added and renilla luciferase luminescence was read on an Envision after a ten minute incubation. To calculate the effect of compounds on RORγt activity, the ratio of firefly to renilla luciferase was determined and plotted against compound concentration. Agonist compounds increase RORγt-driven luciferase expression, and antagonist or inverse agonist compounds decrease luciferase expression.

Chain of human RORγt LBD (P51449 258-518): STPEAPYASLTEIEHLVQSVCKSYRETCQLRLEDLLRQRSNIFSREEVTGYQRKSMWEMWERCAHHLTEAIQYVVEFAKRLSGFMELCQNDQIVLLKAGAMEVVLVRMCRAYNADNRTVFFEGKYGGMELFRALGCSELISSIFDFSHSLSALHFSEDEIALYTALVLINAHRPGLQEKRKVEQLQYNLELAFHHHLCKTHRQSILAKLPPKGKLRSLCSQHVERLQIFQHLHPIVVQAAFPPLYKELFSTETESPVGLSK

SMILES	RORγt reporter Assay, % inhibition @ 6 μM [%]
COc1nc2ccc(C(O)(c3ccc(Cl)cc3)c3cncn3C)cc2c(Cl)c1Oc1ccccc1 (single isomer, unassigned) [Example 15c, (4-Chloro-2-methoxy-3-phenoxyquinolin-6-yl)(4-chlorophenyl)(1-methyl-1H-imidazol-5-yl)methanol]	82
CCOc1nc2ccc(C(O)(c3ccc(C(F)(F)F)nc3)c3cncn3C)cc2c(Cl)c1Oc1ccc(F)cc1 (single isomer, unassigned) [Example 14c, (4-Chloro-2-ethoxy-3-(4-fluorophenoxy)quinolin-6-yl)(1-methyl-1H-imidazol-5-yl)(6-(trifluoromethyl)pyridin-3-yl)methanol]	18
CCN(CC)c1nc2ccc(C(O)(c3ccc(Cl)cc3)c3cncn3C)cc2c(Cl)c1Oc1ccccc1 (single isomer, unassigned) [Example 3b, (4-Chloro-2-(diethylamino)-3-phenoxyquinolin-6-yl)(4-chlorophenyl)(1-methyl-1H-imidazol-5-yl)methanol]	77
CCOc1nc2ccc(C(O)(c3ccc(C(F)(F)F)nc3)c3cncn3C)cc2c(Cl)c1Oc1ccc(F)cc1 (single isomer, unassigned) [Example 14b, (4-Chloro-2-ethoxy-3-(4-fluorophenoxy)quinolin-6-yl)(1-methyl-1H-imidazol-5-yl)(6-(trifluoromethyl)pyridin-3-yl)methanol]	69
CCOc1nc2ccc(C(O)(c3ccc(C(F)(F)F)nc3)c3cncn3C)cc2c(C(F)(F)F)c1Oc1ccc(Cl)cc1 (single isomer, unassigned) [Example 25c, (3-(4-Chlorophenoxy)-2-ethoxy-4-(trifluoromethyl)quinolin-6-yl)(1-methyl-1H-imidazol-5-yl)(6-(trifluoromethyl)pyridin-3-yl)methanol]	67

Same assay, conditions: HEK293T cells, 24 hours compound treatment

SMILES	IC50 [µM]
Cn1cncc1C(O)(c1ccc(C(F)(F)F)nc1)c1ccc2nc(C#N)c(Oc3ccccc3)c(C#N)c2c1 (centres unmarked) [Example 22a, 6-(Hydroxy(1-methyl-1H-imidazol-5-yl)(6-(trifluoromethyl)pyridin-3-yl)methyl)-3-phenoxyquinoline-2,4-dicarbonitrile]	~6

Same assay, conditions: HEK-293T, read-out: RORγt reporter Assay, % inhibition @ 6 μM, 6 μM, HEK293T cells

SMILES	inhibition at 6 µM [%]
Cn1cncc1C(O)(c1ccc(Cl)cc1)c1ccc2nc(C#N)c(Oc3ccc(F)cc3)c(Cl)c2c1 (centres unmarked) [Example 23, 4-Chloro-6-((4-chlorophenyl)(hydroxy)(1-methyl-1H-imidazol-5-yl)methyl)-3-(4-fluorophenoxy)quinoline-2-carbonitrile.TFA]	80
COc1c(Oc2ccccc2)c(Cl)nc2ccc(C(O)(c3ccc(Cl)cc3)c3cncn3C)cc12 (centres unmarked) [Example 18, (2-Chloro-4-methoxy-3-phenoxyquinolin-6-yl)(4-chlorophenyl)(1-methyl-1H-imidazol-5-yl)methanol]	88
CCOc1nc2ccc(C(O)(c3ccc(C(F)(F)F)nc3)c3cncn3C)cc2c(C(F)(F)F)c1Oc1ccc(Cl)cc1 (centres unmarked) [Example 25a, (3-(4-Chlorophenoxy)-2-ethoxy-4-(trifluoromethyl)quinolin-6-yl)(1-methyl-1H-imidazol-5-yl)(6-(trifluoromethyl)pyridin-3-yl)methanol]	75
COc1nc2ccc(C(O)(c3ccc(Cl)cc3)c3cncn3C)cc2c(Cl)c1Oc1ccccc1 (single isomer, unassigned) [Example 15b, (4-Chloro-2-methoxy-3-phenoxyquinolin-6-yl)(4-chlorophenyl)(1-methyl-1H-imidazol-5-yl)methanol]	86
CCN(CC)c1nc2ccc(C(O)(c3ccc(Cl)cc3)c3cncn3C)cc2c(C(F)(F)F)c1Oc1ccccc1 (centres unmarked) [Example 29, (4-Chlorophenyl)(2-(diethylamino)-3-phenoxy-4-(trifluoromethyl)quinolin-6-yl)(1-methyl-1H-imidazol-5-yl)methanol.TFA]	93
CCN(CC)c1nc2ccc(C(O)(c3ccc(Cl)cc3)c3cncn3C)cc2c(Cl)c1N(C(=O)OC(C)(C)C)c1ccccc1 (centres unmarked) [Example 44, tert-Butyl (4-chloro-6-((4-chlorophenyl)(hydroxyl)(1-methyl-1H-imidazol-5-yl)methyl)-2-(diethylamino)quinolin-3-yl)(phenyl)carbamate.TFA]	62
COc1nc2ccc(C(O)(c3ccc(Cl)cc3)c3cncn3C)cc2c(Cl)c1Oc1ccccc1 (centres unmarked) [Example 15a, (4-Chloro-2-methoxy-3-phenoxyquinolin-6-yl)(4-chlorophenyl)(1-methyl-1H-imidazol-5-yl)methanol]	83
CCN(CC)c1nc2ccc(C(O)(c3ccc(C(F)(F)F)nc3)c3cncn3C)cc2c(Cl)c1Oc1ccc(F)cc1 (centres unmarked) [Example 9a]	97
Cn1cncc1C(O)(c1ccc(C(F)(F)F)nc1)c1ccc2nc(C#N)c(Oc3ccc(Cl)cc3)c(C(F)(F)F)c2c1 (centres unmarked) [Example 24, 3-(4-Chlorophenoxy)-6-(hydroxy(1-methyl-1H-imidazol-5-yl)(6-(trifluoromethyl)pyridin-3-yl)methyl)-4-(trifluoromethyl)quinoline-2-carbonitrile]	55
COc1ccc(C(O)(c2ccc3nc(Cl)c(Oc4ccccc4)c(Cl)c3c2)c2cncn2C)cn1 (centres unmarked) [Example 4, (2,4-Dichloro-3-phenoxyquinolin-6-yl)(6-methoxypyridin-3-yl)(1-methyl-1H-imidazol-5-yl)methanol]	92
Cn1cncc1C(O)(c1ccc(Cl)cc1)c1ccc2nc(N3CCC3)c(Oc3ccc(C#N)cc3)c(Cl)c2c1 (centres unmarked) [Example 32a, 4-((2-(Azetidin-1-yl)-4-chloro-6-((4-chlorophenyl)(hydroxyl)(1-methyl-1H-imidazol-5-yl)methyl)quinolin-3-yl)oxy)benzonitrile]	102
Cn1cncc1C(O)(c1ccc(C(F)(F)F)nc1)c1ccc2nc(C#N)c(Oc3ccccc3)c(Cl)c2c1 (centres unmarked) [Example 21, 4-Chloro-6-(hydroxy(1-methyl-1H-imidazol-5-yl)(6-(trifluoromethyl)pyridin-3-yl)methyl)-3-phenoxyquinoline-2-carbonitrile.TFA]	80
COCCN(C)c1nc2ccc(C(O)(c3ccc(C(F)(F)F)nc3)c3cncn3C)cc2c(Cl)c1Oc1ccccc1 (centres unmarked) [Example 34, (4-Chloro-2-((2-methoxyethyl)(methyl)amino)-3-phenxoyquinolin-6-yl)(1-methyl-1H-imidazol-5-yl)(6-(trifluoromethyl)pyridin-3-yl)methanol.TFA]	95
CCOc1nc2ccc(C(O)(c3ccc(OC)nc3)c3cncn3C)cc2c(Cl)c1Oc1ccccc1 (centres unmarked) [Example 10a, (4-Chloro-2-ethoxy-3-phenoxyquinolin-6-yl)(6-methoxypyridin-3-yl)(1-methyl-1H-imidazol-5-yl)methanol.TFA]	95
CCOc1nc2ccc(C(O)(c3ccc(C(F)(F)F)nc3)c3cncn3C)cc2c(Cl)c1Oc1ccc(F)cc1 (centres unmarked) [Example 14a, (4-Chloro-2-ethoxy-3-(4-fluorophenoxy)quinolin-6-yl)(1-methyl-1H-imidazol-5-yl)(6-(trifluoromethyl)pyridin-3-yl)methanol]	55
Cn1cncc1C(O)(c1ccc(C(F)(F)F)nc1)c1ccc2nc(Cl)c(Oc3ccc(Cl)cc3)c(C(F)(F)F)c2c1 (centres unmarked) [Example 46, (2-Chloro-3-(4-chlorophenoxy)-4-(trifluoromethyl)quinolin-6-yl)(1-methyl-1H-imidazol-5-yl)(6-(trifluoromethyl)pyridin-3-yl)methanol]	39
Cn1cncc1C(O)(c1ccc(C(F)(F)F)nc1)c1ccc2nc(C#N)c(Oc3ccccc3)c(C#N)c2c1 (centres unmarked) [Example 22a, 6-(Hydroxy(1-methyl-1H-imidazol-5-yl)(6-(trifluoromethyl)pyridin-3-yl)methyl)-3-phenoxyquinoline-2,4-dicarbonitrile]	55
